The text below walks through data of paper PMC5118696, “Identification of inhibitors that dually target the new permeability pathway and dihydroorotate dehydrogenase in the blood stage of Plasmodium falciparum” (Scientific Reports, 2016).

Molecules are shown by their SMILES. Read-outs that look alike come from different tables or passages of the source.

The test system of experiment [1] is Hyp1-NLuc Plasmodium falciparum-infected erythrocytes (new permeability pathway, NPP). Put plainly: microbe, parasite or virus in culture. As to conditions: Erythrocyte, 0.33 h, read-out: % of control remaining.
Experiment [2] has the same test system. The experiment in a line: microbe, parasite or virus in culture. As to conditions: Erythrocyte, 0.33 h, read-out: Mean RLU at 28 min (As % of DMSO control).

On to `CCOc1cc(Br)c(C(C)NC(=O)c2cccc(OC)c2)cc1OCC` (stereo not drawn) [MMV665796], for which the activity at 2 µM in experiment [1] was determined as 115%; in experiment [2] it was 106%.

For `CCCCNc1nc(NC(C)(C)C)nc(NC(C)(C)C)n1` [MMV665864], the activity at 2 µM in experiment [1] amounted to 130%; in experiment [2], 119%.

`O=C(c1ccccc1F)N(Cc1ccc(Cl)cc1)c1ccccn1` [MMV665899]: the results for the activity at 2 µM in experiment [1] and in experiment [2] were 106% and 102%, respectively.

On to `CCN(CC)c1cc(C)c2cc(NC(=O)c3cccc(OC)c3)ccc2n1` [MMV000498], for which the results for the activity at 2 µM in experiment [1] and in experiment [2] were 118% and 107%, respectively.

`COc1ccc(C(C)=O)cc1N1C(=O)C2C(C1=O)C1(c3ccccc3)C(=O)C2(c2ccccc2)C(c2ccc(C)cc2)=C1c1ccc(C)cc1` (stereo not drawn) [MMV007695]: the activity at 2 µM stood at 98.4% in experiment [1] and 98.9% in experiment [2].

Take `Cc1cc(Nc2ccc3ccccc3c2)n2ncnc2n1` [MMV011099]: the activity at 2 µM in experiment [1] was found to be 99.8%; in experiment [2], 99.9%.

For the molecule `CCCc1c(C)nc2ccc(Br)cc2c1O` [MMV666095], the activity at 2 µM in experiment [1] amounted to 113%; in experiment [2], 104%.

`Cc1ccc(Nc2nc(NCCO)c3ccccc3n2)cc1C` [MMV001038]: the activity at 2 µM in experiment [1] and in experiment [2] was 102% throughout.

Regarding `COc1ccc(OC)c(C2C3=C(CC(C)(C)CC3=O)N(c3ccc(Cl)c(Cl)c3)C3=C2C(=O)CC(C)(C)C3)c1` [MMV007208], the activity at 2 µM in experiment [1] is 104%; in experiment [2] it was 102%.

For the molecule `Cc1cc(N2CCCC2)nc(Nc2ccc(NC(=O)CCc3ccccc3)cc2)n1` [MMV396669], the activity at 2 µM in experiment [1] amounted to 76.3%; in experiment [2] it was 90.3%.

Take `Cc1ccc(Cl)cc1N1CCN(CCCNC(=O)C2CCN(c3nc4ccccc4[nH]3)CC2)CC1` [MMV019746]: the activity at 2 µM in experiment [1] was determined as 112%; in experiment [2] it was 105%.

Take `O=C(NCc1ccco1)C1CCN(S(=O)(=O)c2ccc(Cl)cc2)CC1` [MMV006188]: the activity at 2 µM in experiment [1] was found to be 112%; in experiment [2], 106%.

In the case of `COc1ccc(CCn2c(=N)c(C(=O)NCc3cccnc3)cc3c(=O)n4cccc(C)c4nc32)cc1` [MMV667488], the results for the activity at 2 µM in experiment [1] and in experiment [2] were 95.6% and 105%, respectively.

Consider `CCN(CC)CCNc1ccnc2cc(Cl)ccc12` [MMV006087], for which the activity at 2 µM in experiment [1] was found to be 105%; in experiment [2] it was 107%.

For the molecule `COc1cccc(NC(=O)[C@H](C(C)C)n2c(=O)[nH]c3ccccc3c2=O)c1` [MMV665878], the activity at 2 µM in experiment [1] worked out at 101%; in experiment [2], 102%.

With `COc1ccc(C2NCCc3c2[nH]c2ccccc32)cc1CN1CCN(c2ccc(F)cc2)CC1` (stereo not drawn) [MMV019690], the figures for the activity at 2 µM in experiment [1] and in experiment [2] were 113% and 106%, respectively.

Turning to `Cc1ccc2nc(C)cc(Nc3cccc(C(F)(F)F)c3)c2c1` [MMV000326], the activity at 2 µM in experiment [1] was 118%; in experiment [2], 110%.

For `Cc1ccnc(NC(c2cccc(OCc3ccccc3)c2)c2ccc3cccnc3c2O)c1` (stereo not drawn) [MMV000720], the activity at 2 µM was 108% in experiment [1] and 102% in experiment [2].

With `CCC(C)NCC(O)(c1ccc(Cl)cc1)c1ccc(Cl)cc1` (stereo not drawn) [MMV665928], the activity at 2 µM in experiment [1] was 121%; in experiment [2], 106%.

On to `CCOc1ccc(-n2cc(-c3ccccc3)c3c(SCc4cc(C)ccc4C)ncnc32)cc1` [MMV085471], for which the activity at 2 µM in experiment [1] turned out to be 118%; in experiment [2] it was 104%.

`COc1cc(C(=O)Nc2ccc(-c3nc4ccccc4[nH]3)cc2)cc(OC)c1OC` [MMV665898]: the activity at 2 µM in experiment [1] worked out at 103%; in experiment [2], 108%.

As to `CCOC(=O)C1=C(C)N=c2sc(=Cc3ccccc3O)c(=O)n2C1c1ccc(OC)c2ccccc12` (stereo not drawn) [MMV666604], the activity at 2 µM was 117% in experiment [1] and 110% in experiment [2].

Regarding `O=C(Nc1ccc(F)c(Cl)c1)Nc1ccc(Cl)c(Cl)c1` [MMV665953], the activity at 2 µM was 125% in experiment [1] and 108% in experiment [2].

As for `O=C(NCC(c1ccsc1)N1CCCCCC1)c1ccc(C(F)(F)F)cc1` (stereo not drawn) [MMV396672], the values for the activity at 2 µM in experiment [1] and in experiment [2] were 98.1% and 101%, respectively.

Regarding `O=C1c2ccccc2C2=Nc3ccccc3SC(c3cccc(F)c3)C12` (stereo not drawn) [MMV006389], the activity at 2 µM in experiment [1] was determined as 102%; in experiment [2] it was 98.3%.

As to `CCN(CC)CCNc1ncnc2c1[nH]c1ccc(Cl)cc12` [MMV396703], the activity at 2 µM in experiment [1] amounted to 99.7%; in experiment [2] it was 110%.

Take `COc1ccc(Br)cc1C1Nc2ccc3ccccc3c2C2=C1C(=O)CC(c1ccccc1)C2` (stereo not drawn) [MMV020885]: the activity at 2 µM in experiment [1] came to 97.2%; in experiment [2], 100%.

For `COc1ccccc1N1CCN(C(CNS(=O)(=O)c2ccc(Cl)cc2)c2cccnc2)CC1` (stereo not drawn) [MMV665914], the activity at 2 µM in experiment [1] amounted to 97.5%; in experiment [2], 102%.

On to `O=C(NC1CCN(Cc2ccccc2)CC1)c1cc(C(=O)NC2CCN(Cc3ccccc3)CC2)cc(C(=O)NC2CCN(Cc3ccccc3)CC2)c1` [MMV019881], for which the activity at 2 µM in experiment [1] is 111%; in experiment [2], 110%.

In the case of `OC(CNC1CCCCC1)Cn1c2ccc(I)cc2c2cc(I)ccc21` (stereo not drawn) [MMV665882], the activity at 2 µM was found to be 93.7% in experiment [1] and 103% in experiment [2].

For `COc1cc(OC)c(N(C)C(=O)c2cc3c(s2)-c2ccccc2S(=O)(=O)C3)cc1Cl` [MMV006427], the activity at 2 µM in experiment [1] was found to be 104%; in experiment [2] it was 105%.

Turning to `OC(CNC1CCCCC1)Cn1c2ccccc2c2ccccc21` (stereo not drawn) [MMV009063], the activity at 2 µM is 92.9% in experiment [1] and 97% in experiment [2].

For `CCOc1cc(CNC(C)C(O)c2ccccc2)cc(Cl)c1OCC` (stereo not drawn) [MMV396633], the activity at 2 µM in experiment [1] is 114%; in experiment [2] it was 113%.

As for `Cc1cc(Nc2ccc(Cl)cc2)n2nc(C(F)(F)F)nc2n1` [MMV011256], the activity at 2 µM in experiment [1] is 109%; in experiment [2], 111%.

For `CC1CCN(Cc2c(O)ccc3cc(-c4nc5ccccc5s4)c(=O)oc23)CC1` [MMV009127], the activity at 2 µM in experiment [1] is 105%; in experiment [2], 101%.

Consider `O=C1c2ccc3c4c(ccc(c24)C(=O)N1CCCCO)C(=O)N(CCCCO)C3=O` [MMV009085], for which the activity at 2 µM in experiment [1] is 58.9%; in experiment [2], 93.1%.

Consider `O=C(Nc1ccc(Cl)cc1)N1CCN(c2ccc3nncn3n2)CC1` [MMV665917], for which the activity at 2 µM in experiment [1] was determined as 27.3%; in experiment [2], 53.8%.

As for `O=C(NC1CCN(Cc2ccccc2)CC1)c1cc(-c2ccncc2)nc2ccc(Cl)cc12` [MMV020275], the activity at 2 µM in experiment [1] and in experiment [2] was 115% each time.

Turning to `CCCN(CCC)CC(O)COc1ccccc1C(=O)Nc1ccccc1` (stereo not drawn) [MMV006455], the results for the activity at 2 µM in experiment [1] and in experiment [2] were 104% and 105%, respectively.

As to `CC1CCN(Cc2ccc(NC(=O)c3cc4ccc5cccnc5c4[nH]3)cc2)CC1` [MMV020549], the activity at 2 µM in experiment [1] amounted to 90.5%; in experiment [2], 102%.

For `O=C(NC1CCN(Cc2ccccc2)CC1)c1cc2nc(-c3ccc(Cl)s3)cc(C(F)(F)F)n2n1` [MMV396635], the activity at 2 µM in experiment [1] and in experiment [2] was 101% throughout.

Take `COc1ccc(C(=O)Nc2ccc(Cl)cc2C(=O)Nc2ccncc2)cc1` [MMV665799]: the activity at 2 µM in experiment [1] amounted to 111%; in experiment [2], 100%.
